Source: US20180064729A1, “Treatment of Pulmonary Disease” (Intercept Pharmaceuticals, Inc., priority 2012, published 2018)
Entries after “also recorded” stand apart in the source; their conditions may differ.

How the values were obtained:
small pulmonary arteries = experiment: MCT-induced pulmonary hypertensive rat model: pulmonary artery wall thickness; assay type: in vivo; details: for wall thickness (WT) in small pulmonary arteries: MCT 60 mg/kg s.c. alone; for MCT-induced increase in wall thickness (WT): OCA 30 mg/kg oral, p<0.00001
Procedure: (§1) Pulmonary hypertension was induced by subcutaneous injection of 60 mg/kg monocrotaline (MCT) (Sigma Chemicals, St. Louis, Mo., USA) dissolved in 0.5 N HCl solution. Briefly, male Sprague-Dawley (SD) rats, weighing between 200 to 250 g, were housed in climate-controlled conditions with a 12 hours light:12 hours dark cycle, with free access to chow and water. SD rats were randomly allocated to the following groups: • 1) SD rats left untreated and sacrificed after 7 (n=5) or 28 (n=5) days; • 2) SD rats receiving a single subcutaneous injection of vehicle MCT sacrificed after 7 days (n=5); • 3) SD rats receiving a single subcutaneous injection of vehicle MCT sacrificed after 28 days (n=10); • 4) SD rats receiving a single subcutaneous injection of MCT [60 mg/kg, n=5] sacrificed after 7 days; • 5) SD rats receiving single subcutaneous injection of MCT [60 mg/kg, n=15] sacrificed after 28 days; • 6) SD rats receiving single subcutaneous injection of MCT [60 mg/kg] and immediately treated with OCA (30 mg/kg, daily 5 days a week, by oral gavage, n=5) for 7 days]; • 7) SD rats receiving single subcutaneous injection of MCT [60 mg/kg] and immediately treated with OCA (30 mg/kg, daily 5 days a week, by oral gavage, n=10) for 28 days]; • 8) SD rats receiving single subcutaneous injection of MCT [60 mg/kg] and immediately treated with tadalafil (10 mg/kg/day, in drinking water, n=5) for 7 days]; • 9) SD rats receiving single subcutaneous injection of MCT [60 mg/kg] and immediately treated with tadalafil (10 mg/kg/day, in drinking water, n=10) for 28 days]; • 10) SD rats receiving single subcutaneous injection of MCT [60 mg/kg] and immediately treated with vehicle OCA (by oral gavage, n=5) for 7 days; • 11) SD rats receiving single subcutaneous injection of MCT [60 mg/kg] and immediately treated with vehicle OCA (by oral gavage, n=10) for 28 days.
Pulmonary vascular remodeling was evaluated by determining wall thickness (WT). Lungs were fixed in 10% buffered formalin and embedded in paraffin, then sectioned at a thickness of 5 μm and stained with hematoxylin-eosin. Ten pulmonary arteries were examined for structural integrity using a morphometric image analysis system independently by two pathologists who were blinded to animal grouping. WT, vessel diameter (ED), were determined. WT(%)=(2×WT/ED)×100%. More than 50 images of pulmonary arterioles (25 to 100 μm diameters) from at least three tissue sections at a magnification of ×20 were captured using amicroscopic digital camera and analyzed using an image analysisprogram (Fiji-win32). The external diameter (D) and medial thickness oneither side (M1 and M2) were measured along the shortest diameter. The medial wall thickness was expressed as follows: % wall thickness=[(M1+M2)/2/D]×100.

Sprague-Dawley (SD) rats [1] = experiment: MCT-induced pulmonary hypertensive rat model: survival (Kaplan-Meier); assay type: in vivo; details: MCT-treated rats, study period 28 days
Procedure: (§2) Pulmonary hypertension was induced by subcutaneous injection of 60 mg/kg monocrotaline (MCT) (Sigma Chemicals, St. Louis, Mo., USA) dissolved in 0.5 N HCl solution. Briefly, male Sprague-Dawley (SD) rats, weighing between 200 to 250 g, were housed in climate-controlled conditions with a 12 hours light:12 hours dark cycle, with free access to chow and water. […]
During the study period, the animals were observed daily for mortality, and median survival time in each group was calculated with Kaplan-Meier analysis.

[2] = tested on: C57B1/6 wild-type and FXR−/− mice; experiment: murine bleomycin-induced pulmonary fibrosis model; assay type: in vivo; details: bleomycin day 0; 5 mg/kg daily; 22 days
Procedure: The murine model of bleomycin-induced pulmunary fibrosis was induced in C57B1/6 wild-type and FXR^−/− mice (females, 6-8 weeks old). Groups of treatment included: • WT mice: A—saline (day 0); B—bleomycin (day 0); C—bleomycin (day 0)- • Compound 1 (also referred to as 6ECDCA) (5 mg/kg, daily) • FXR^−/− mice: D—saline (day 0); E—bleomycin (day 0); F—bleomycin (day 0) • Compound 1 (also referred to as 6ECDCA) (5 mg/kg, daily).
After 22 days, the mice were sacrified and the subsequent analyses were performed: (1) H&E and […] staining on lung sections; (2) Quantification of collagen I into the lung by qRT-PCR and Sircol collagen assay; (3) FXR, SHP and CXCL12 mRNA quantification by qRT-PCR; and (4) CXCL12 protein quantification by ELISA on lung homogenates.

[3] = tested on: murine lung fibroblast cell line (ATCC number CCL-206); experiment: Col I and CXCL12 expression in stimulated lung fibroblasts (qRT-PCR, ELISA, Sircol); assay type: cell-based; details: 24 hours
Procedure: FXR activation reduced the production of collagen I and […] by resident fibroblasts. Specifically, after a 24 hour period of starving, cells from the murine lung fibroblast cell line (ATCC number CCL-206) were stimulated with or without TGFβ1 (10 ng/ml) and 6ECDCA (10 μM) for 24 hours and then the FXR, SHP and Col I gene expression was analyzed by qRT-PCR. After a 24 hours period of starving, cells from the murine lung fibroblast cell line (ATCC number CCL-206) were stimulated with or without TNFα (10 ng/ml) and 6ECDCA (10 μM) for 24 hours and then the FXR, SHP and CXCL12 gene expression was analyzed by qRT-PCR.
The downregulation of Col I and CXCL12 induced by 6ECDCA was FXR-mediated. After an overnight period of starving, murine lung fibroblast cell line (ATCC number CCL-206) was stimulated with or without TGFβ1 (10 ng/ml) and 6ECDCA (1 μM) for 24 hours—with and without block of the FXR by siRNA—and then the FXR, SHP, Col I and CXCL12 gene expression was analyzed by qRT-PCR. CXCL12 and Col I secretion in the supernatants was analyzed by ELISA and the Sircol collagen assay, respectively.
The downreguation of Col I and CXCL12 induced by 6ECDCA was SHP-mediated. Specifically, transfection of pulmonary fibroblasts with vector carrying the HA-SHP chimera was carried out to induce a SHP overexpression (WB analysis of the HA-SHP expression). Col I and CXCL12 expression (by qRT-PCR) was analyzed at baseline and after stimulation with TGFβ1. SHP overexpression was sufficient to down-regulate the Col I and CXCL12 expression, basically and after stimulation with TGFβ1.
After an overnight period of starving, murine lung fibroblast cell line (ATCC number CCL-206) were stimulated with/without TGFβ1 (10 ng/ml) and 6ECDCA (1 μM) for 24 hours—with and without block of the SHP by siRNA—and then the FXR, SHP, Col I and CXCL12 gene expression was analyzed by qRT-PCR. CXCL12 and Col I secretion in the supernatants was analyzed by ELISA and the Sircol collagen assay, respectively.

[4] = tested on: DSS (Dahl salt-sensitive) rat; experiment: Dahl salt-sensitive (DSS) rat high salt diet study; assay type: in vivo
Excerpt: The rodent model for salt-sensitive hypertension was a DSS (Dahl salt-sensitive) rat (e.g., Rapp). […] Specifically, the rodent models used for the study were male 4-week old DSS rats (e.g., SS/JrHsd) from Harlan Laboratories. The normal diet of the DSS rats was 0.49% NaCl and the high salt diet was 8% NaCl (e.g., Teklad Custom Research Diet). The rats were divided into four groups (herein referred to as DSS study rats): • Group 1; Normal salt diet (1% Methylcellulose) (N=6) • Group 2; High-salt diet (Vehicle; 1% MC) (N=9) • Group 3; High-salt diet (6ECDCA 10mg/kg/day) (N=6) • Group 4; High-salt diet (6ECDCA 30mg/kg/day) (N=9)
The following analyses were carried out: ADMA and NO levels in serum and urine and tissues (e.g., liver, muscle and kidney), blood pressure and heart rate, fasting blood glucose and insulin (HOMA-IR), ipGTT (IR-index), and urinary protein and creatinine. Additional studies such as electrolytes (Na+), histological analysis and TGFbeta expression in kidney, DDAH expression and activity in liver, skeletal muscle and kidney, and Akt-phosphorylation level in liver, skeletal muscle and kidney can also be carried out.
6ECDCA was administered orally daily for 6-weeks. Blood and urine collections were performed at week 0 and week 6 and analyzed by methods known in the art. Blood pressure measurement was performed at week 0, 1, 2, 4 and 6 by tail cuff devices, which was performed on conscious models and was non-invasive. The blood pressure was also obtained via catheter, which was performed when the model was sacrificed. The glucose challenge test was performed at week 5. Renal function was analyzed by measuring the urinary volume, protein and creatinine in a 24 h-urine sample. Histological analysis was performed using the Masson&Trichrome staining. Insulin resistance was analyzed using the ipGTT test and the HOMA/IR index. The ADMA and NO levels were detected in blood concentration and urinary excretion (FIG. 1).

Sprague-Dawley (SD) rats [5] = experiment: MCT-induced pulmonary hypertensive rat model: right ventricular hypertrophy index; assay type: in vivo; details: day 28; MCT 60 mg/kg s.c.; OCA 30 mg/kg oral gavage, tadalafil 10 mg/kg/day in drinking water
Procedure: as §2

[6] = tested on: lung mRNA of inflammation, endothelium-proliferative and NO-signaling genes; experiment: MCT-induced pulmonary hypertensive rat model: lung mRNA expression by qRT-PCR; assay type: in vivo
Procedure: as §1
mRNA expression analysis of genes involved in inflammation [interleukin 6 (IL-6), monocyte chemoattractant protein-1 (MCP-1/CCL2), cyclooxygenase-2], endothelium-proliferative factors (vascular endothelial growth factor (VEGF) and angiotensin-converting enzyme 2 (ACE2)), NO-signaling [endothelial nitric oxide synthase (eNOS), phosphodiesterase type 5 (PDES), cyclic guanylate cyclase subunits type 1a3 and 1b3, GC1a3, GC1b3, protein kinase G 1, PKG1], were performed. Isolation of RNA from lung, qRT-PCR was performed according to the fluorescent TaqMan methodology. PCR primers and probes specific for mRNA sequences of aforementioned target genes and of the reference gene 18S rRNA was purchased from Life Technologies (Paisley, UK).

C[C@H]1C(=O)O[C@@H]2CCN3CC=C(COC(=O)[C@](C)(O)[C@]1(C)O)[C@H]23 [MCT, monocrotaline, reference compound]
wall thickness (WT) in small pulmonary arteries (small pulmonary arteries; day 7, control 19±0.7): 33±0.8%
wall thickness (WT) in small pulmonary arteries (small pulmonary arteries; day 28, control 16.8±0.8%): 32.6±0.7%
mortality rate (Sprague-Dawley (SD) rats [1]): 24%

CC[C@H]1[C@@H](O)[C@@H]2[C@H](CC[C@]3(C)[C@@H]([C@H](C)CCC(=O)O)CC[C@@H]23)[C@@]2(C)CC[C@@H](O)C[C@@H]12 [Compound 1, 3α,7α-dihydroxy-6α-ethyl-5β-cholanic acid]
pulmonary fibrosis [2]: ameliorates the pulmonary fibrosis
downregulation of Col I and CXCL12, dependence on SHP ([3]; TGFβ1 10 ng/ml, 6ECDCA 1 μM, SHP overexpression / block of SHP by siRNA): SHP-mediated
downregulation of Col I and CXCL12, dependence on FXR ([3]; TGFβ1 10 ng/ml, 6ECDCA 1 μM, with and without block of FXR by siRNA): FXR-mediated
production of collagen I by resident fibroblasts (Col I gene expression) ([3]; TGFβ1 10 ng/ml, 6ECDCA 10 μM): reduced
production of CXCR12 by resident fibroblasts (CXCL12 gene expression) ([3]; TNFα 10 ng/ml, 6ECDCA 10 μM): reduced
ADMA levels in serum and urine [4]: did not reduce ADMA
albuminuria induced by high salt diet [4]: reduced albuminuria
IR-index reduction compared to the vehicle ([4]; 10 mg/kg): 38%
body weight ([4]; 10 mg/kg and 30 mg/kg, seven week study): did not affect the body weight
IR-index reduction compared to the vehicle ([4]; 30 mg/kg): 21%
lung weight (pulmonary congestion) ([4]; 30 mg/kg): reduced lung weight
renal protection ([4]; 30 mg/kg): showed renal protection
heart rate ([4]; 10 and 30 mg/kg/day oral): did not affect heart rate
blood pressure ([4]; 10 and 30 mg/kg/day oral, listed as 6ECDCA): did not affect heart rate blood pressure or reduce blood pressure; also recorded: did not reduce blood pressure
glucose levels ([4]; GTT): trended lower
insulin levels ([4]; GTT): trended lower
insulin sensitivity (Insulin Resistance-Index) ([4]; GTT at week 5): reversed insulin resistance
right ventricular hypertrophy index (RVH), RV/(LV+S) (Sprague-Dawley (SD) rats [5]): completely normalized RVH
MCT-induced increase in wall thickness (WT) (small pulmonary arteries; day 7): markedly reduced
MCT-induced increase in wall thickness (WT) (small pulmonary arteries; day 28): markedly reduced
PKG1 mRNA expression ([6]; 28-day treatment, p=0.01 vs. MCT): significantly upregulates
GC1a3 mRNA expression ([6]; after 7 days of OCA dosing): significant increase
PDES mRNA expression ([6]; after 7 days of OCA dosing): significant increase
PKG1 mRNA expression ([6]; after 7 days of OCA dosing): significant increase
MCT-induced MCP-1 expression ([6]; day 7, lung): significantly reduced
IL-6 mRNA expression ([6]; day 28, lung): significantly reduced
MCT-induced MCP-1 expression ([6]; day 28, lung): significantly reduced
VEGF mRNA expression ([6]; day 28, p=0.001 vs. MCT): significantly upregulate
ACE2 mRNA expression ([6]; day 28, p=0.038 vs. MCT): significantly upregulate
mortality rate (Sprague-Dawley (SD) rats [1]): 13.2%
